Consider three compounds from patent US20080318803A1, “Biomarkers for Monitoring Impdh Pathway Inhibition” (VERTEX PHARMACEUTICALS, priority 2004, published 2008).

The test system of assay [1] is genes responsive to IMPDH inhibition. The assay can be described thus: Gene chip analysis of genes responsive to IMPDH inhibition (18 gene chips, 8793 genes). The following applies: for No. genes modulated: of 3421 genes common to all 18 gene chips. The format is cell-based. An excerpt:
The present invention is directed to methods and compositions for using biomarkers that are responsive to changes in IMPDH activity levels.

A further assay has as its system PBMCs PHA-T cell. The assay can be described thus: PBMC proliferation assay (PHA-stimulated T cells). The following applies: for IC50: Homo sapiens, PBMC. The format is cell-based, human. An excerpt: Monitoring gene expression patterns offers an alternative approach for optimizing the therapeutic window as compared with the traditional method of measuring drug concentrations in blood and correlating either the AUC or Cmax levels with a clinical response. Towards that end, the inventors have comprehensively evaluated several genes affected by treatment with two distinct IMPDH inhibitors in vitro, as potential readouts for assessing their biological activity. The genes that are listed in Tables I through VIII are particularly useful in the present invention. These genes were identified using the specific methods as follows: Most cell culture reagents, unless specified otherwise, were obtained from Gibco-BRL or JRH Biologicals. Complete RPMI was prepared by adding up to a final of 10% heat-inactivated fetal bovine serum (FBS), 55 μM β mercaptoethanol, 50 units/mL penicillin with 50 μg/mL streptomycin, 300 μg/ml L-glutamine and 10 mM HEPES pH 7.5 to RPMI1640. Stock solutions of Phyto-hemagglutinin (PHA-P, Difco) was prepared in FBS-free RPMI and stored at −20° C. VX-944, and MPA (Sigma-Aldrich or Calbiochem), were dissolved in DMSO at a concentration of 20 mM and stored at −20° C.
Peripheral blood mononuclear cells (PBMCs) and T cells were isolated as follows: Human venous blood was drawn from healthy volunteers using heparin as an anti-coagulant. PBMCs were isolated from blood by centrifugation over Ficoll-paque gradient or CPT tubes (Becton-Dickinson, Calif.), using standard conditions. PBMCs were harvested, washed and resuspended in complete RPMI, counted and diluted to 1×10^6 cells/ml.
In order to monitor PBMC proliferation assay, human PBMC derived T cells (5×10^4 cells/well), were added to 96-well plates. PHA was added up to a final concentration of 10-20 μg/mL per well for stimulating T cells. The mitogen SPAS was used at a final concentration of 2 mg/mL. DMSO was maintained at a final concentration of 0.1%.

The next assay relates to HL-60 cells. Description: Affymetrix array transcript profiling in HL-60 cells, 14 h (early) and 30 h (late). The assay is classed as cell-based, human. The procedure:
The above agents were tested in HL-60 cells at a concentration of 500 nM for VX-944 and 1000 nM for MPA or with 0.1% DMSO as the vehicle control. The cells were harvested at 14 or 30 hours post addition of compound or vehicle. Briefly, the culture medium was removed at the appropriate time-points and the cells washed with PBS. The cells were then harvested, and pelleted by-gentle centrifugation. The supernatant was discarded and the pellets snap-frozen on an ethanol/dry-ice slurry. RNA was isolated from cells by using a RNEasy kit from Qiagen. RNAs were quality controlled using the Agilent 2100 Bioanalyzer to determine the presence of RNAs.
Data from the arrays corresponding to VX-944 and MPA at the two time-points—14 hours (Early) and 30 hours (Late) were analyzed using Spotfire™, microarray data analysis software. Some of the data analysis parameters used are outlined below:
a) All the arrays were normalized by using trimmed means, with a 5% exclusion limit
b) Only genes present in at least 5 of the 6 chips used for the analyses were included in the genesets
c) Only statistically significant genes (ANOVA, p<0.05) were included in the final analyses to generate gene lists.
At the late (30 h) time-point, 335 genes were identified as overlapping between the VX-944 and MPA datasets. […] With MPA 66 genes are in common between the two time-points. As to a comparison between the two data sets, of the 102 genes modulated by VX-944 and the 66 genes modulated by MPA, 43 genes […]. To add additional value to the gene lists and provide additional information to the investigator, the genes underlying each of these expression patterns was queried against publicly available databases. These databases included Locus Link, Gene Cards, KEGG, GO annotations, OMIM, PubMed. The information gathered from such an analysis is organized below in data tables.

Assay [2] relates to human peripheral lymphocytes. The following applies: cited from earlier work.
For the next assay, the target named is both IMPDH isozymes. The following applies: cited from earlier work.
The next assay deals with PBMC cells. Description: Gene expression changes in resting and PHA-stimulated (proliferating) PBMCs treated with VX-944. The following applies: proliferating lymphocytes; out of 67 genes. The assay is classed as cell-based, human.
The mark [3] stands for this setting: read-out: PBMCs PHA-T cell IC50.
Setting [4] is: read-out: PHA-T cell IC50 in the presence of guanosine.
The mark [5] stands for this setting: common to early (14 h) and late (30 h).
The mark [6] stands for this setting: treated vs. DMSO, early (14 h), VX-944 500 nM, MPA 1000 nM.

Where two headings read alike, the source gives them in different places. Some results are limits rather than exact numbers.

For `COc1c(C)c2c(c(O)c1C/C=C(\C)CCC(=O)O)C(=O)OC2` [MPA, Mycophenolic acid], in assay [1], the “No. genes modulated: Decreased” value came to 36. The “No. genes modulated: Increased” value in assay [1] is on record as 39. In assay [1], this compound returned a No. genes modulated of 75. Further, the “Ratio of PHA-T cell IC50 in the presence and absence of guanosine” value (from here on “Ratio of PHA-T cell IC50”) in the assay on PBMCs PHA-T cell is listed as more than 224. Besides, the IC50 with PBMCs PHA-T cell (setting [3]) was 89 nM; in the assay on PBMCs PHA-T cell (setting [4]) it was more than 20000 nM. The “Number of Genes Downregulated” value in the assay on HL-60 cells (setting [5]) is given as 0; in the assay on HL-60 cells (treated vs. DMSO, early (14 h)), 0; in the assay on HL-60 cells (treated vs. DMSO, late (30 h)) it was 560. Moreover, the “Number of Genes Total” value came out at 66 in the assay with HL-60 cells (setting [5]); 105 with HL-60 cells (treated vs. DMSO, early (14 h)); 1162 in the assay with HL-60 cells (treated vs. DMSO, late (30 h)). Moreover, the “Number of Genes Upregulated” value was found to be 66 with HL-60 cells (setting [5]); 105 with HL-60 cells (setting [6]); 602 with HL-60 cells (treated vs. DMSO, late (30 h)). The “FOLD CHANGE (MPA, EARLY)” value with HL-60 cells (gene ALG6) is 1.5; in the assay on HL-60 cells (gene C6orf18) it was 1.5; in the assay on HL-60 cells (gene C8orf2) it was 1.5; in the assay on HL-60 cells (gene C21orf4), 1.5; in the assay on HL-60 cells (gene CLECSF5), 1.5; with HL-60 cells (gene FBXO5), 1.6. Also, the “FOLD CHANGE (MPA, EARLY)” value in the assay with HL-60 cells (gene FLJ10852 (HIP14L)) came to 1.5; in the assay with HL-60 cells (gene KLHL2), 1.6; in the assay on HL-60 cells (gene MGC13024) it was 1.5; in the assay with HL-60 cells (gene MLC-B (MRLC2)) it was 1.8; in the assay with HL-60 cells (gene RAGD), 1.5; with HL-60 cells (gene RPAC2 (POLR1D)) it was 1.5. In addition, the “FOLD CHANGE (MPA, EARLY)” value came to 1.5 in the assay on HL-60 cells (gene SNX10), 1.7 in the assay on HL-60 cells (gene TMEM8) and 1.5 in the assay with HL-60 cells (gene TOPK).

Consider `COc1cc(NC(=O)Nc2cccc(CNC(=O)O[C@H]3CCOC3)c2)ccc1-c1cnco1` [VX-497], for which, in the assay on PBMCs PHA-T cell, the “Ratio of PHA-T cell IC50” value worked out at 62. Moreover, the IC50 in the assay with PBMCs PHA-T cell (setting [3]) is 105 nM; in the assay with PBMCs PHA-T cell (setting [4]), 6500 nM.

For `CC[C@H](CC#N)OC(=O)N[C@@H](C)c1cccc(NC(=O)Nc2ccc(-c3cnco3)c(OC)c2)c1` [VX-944], the “No. genes modulated: Decreased” value in assay [1] amounted to 60. Also, the “No. genes modulated: Increased” value in assay [1] is 46. Besides, the No. genes modulated in assay [1] came to 106. Further, the “inhibition of lymphocyte proliferation on addition of guanosine” value in assay [2] (50 μM guanosine) is “alleviated”. In addition, the “potency in inhibiting lymphocyte proliferation compared with other IMPDH inhibitors” value in assay [2] (stimulated with either T or B-cell mitogens) is on record as “more potent than VX-497 or MPA”. In addition, the IC50 was 20 to 100 nM in assay [2] (stimulated with either T or B-cell mitogens, read-out: IC50, inhibition of proliferation of human peripheral lymphocytes); 21 nM in the assay with PBMCs PHA-T cell (setting [3]); 7800 nM in the assay on PBMCs PHA-T cell (setting [4]). Further, in the assay on PBMCs PHA-T cell, the “Ratio of PHA-T cell IC50” value is 373. Moreover, the “potency in cell assays relative to MPA” value in the assay with PBMCs PHA-T cell (VX-944 vs MPA) is recorded as 3-4 fold. The “Number of Genes Downregulated” value in the assay with HL-60 cells (setting [5]) is listed as 0; in the assay on HL-60 cells (treated vs. DMSO, early (14 h)) it was 119; with HL-60 cells (treated vs. DMSO, late (30 h)), 0. Moreover, the “Number of Genes Total” value in the assay with HL-60 cells (setting [5]) came to 102; with HL-60 cells (treated vs. DMSO, early (14 h)), 291; with HL-60 cells (treated vs. DMSO, late (30 h)), 434. The “Number of Genes Upregulated” value in the assay on HL-60 cells (setting [5]) was found to be 102; in the assay with HL-60 cells (setting [6]), 172; in the assay on HL-60 cells (treated vs. DMSO, late (30 h)), 434. Further, the Ki at both IMPDH isozymes is 7 to 10 nM. The “number of genes implicated in cancers that are down-regulated” value in the assay with PBMC cells worked out at 4.
